Data on 1 molecule can be found in ChEMBL document CHEMBL1134067, “Modeling of the binding mode of a non-covalent inhibitor of the 20S proteasome. Application to structure-based analogue design” (Bioorg Med Chem Lett, 2001).

The species named for the assay is Homo sapiens. As to the kind of experiment: In vitro inhibitory concentration against Chymotrypsin-like catalytic activity of the human 20S Proteasome. The format is functional.

A value given as a limit tells only on which side of the number the result lay.

`COc1ccc(CN[C@@H](C(=O)N[C@H](C(=O)NCc2ccc(OC)cc2OC)C(C)C)[C@H](O)[C@H](Cc2ccccc2)NC(=O)[C@@H](NC(=O)OCc2ccccc2)C(C)C)cc1`: the concentration for half-maximal inhibition (IC50) was > 20 µM.

In general, IC50 refers to the midpoint of a concentration-inhibition curve. Higher therefore signals weaker potency in that assay.
